This is an account of results in patent US20220265817A1, “THERAPEUTIC COMPOSITIONS AND METHODS FOR TREATING HEPATITIS B” (priority 2017, published 2022).

Assay [1] has as its system HBV rcDNA in HepDE19 cells. As to the kind of experiment: HepDE19 cell culture system, rcDNA quantitation using bDNA assay, MacSynergy II. The class given is cell-based, human hepatoma cell line. As to conditions: for AVERAGE % INHIBITION (rcDNA): 4 replicates, SIRNA-NP ng/mL by row: r8 25, r9 8.333, r10 2.778, r11 0.926, r12 0.309, r13 0; for ADDITIVE INHIBITION: expected from additive interaction, SIRNA-NP ng/mL by row: r30 25, r31 8.333, r32 2.778, r33 0.926, r34 0.309, r35 0. Here is the method:
In vitro combination studies were conducted using the method of Prichard and Shipman (Prichard M N, and Shipman C Jr., Antiviral Research, 1990, 14 (4-5), 181-205; and Prichard M N, et. al., MacSynergy II). HepDE19 cell culture system is a HepG2 (human hepatocarcinoma) derived cell line that supports HBV DNA replication and cccDNA formation in a tetracycline (Tet)-regulated manner and produces HBV rcDNA and a detectable reporter molecule dependent on the production and maintenance of cccDNA (Guo et al 2007. J. Virol 81:12472-12484). HepDE19 (50,000 cells/well) were plated in 96 well collagen-coated tissue-culture treated microtiter plates in DMEM/F12 medium supplemented with 10% fetal bovine serum, 1% penicillin-streptomycin and 1 μg/ml tetracycline and incubated in a humidified incubator at 37° C. and 5% CO2 overnight. Next day, the cells were switched to fresh medium without tetracycline and incubated for 4 hrs at 37° C. and 5% CO2. […] The two inhibitors were tested both singly as well as in combinations in a checkerboard fashion such that each concentration of inhibitor A was combined with each concentration of inhibitor B to determine their combination effects on inhibition of rcDNA production. Following a 7 day-incubation of cells with compound combinations, the level of rcDNA present in the inhibitor-treated wells was measured using a Quantigene 2.0 bDNA assay kit (Affymetrix, Santa Clara, Calif.) with HBV specific custom probe set and manufacturers instructions. […] The RLU data from the single compound treated cells were analyzed using XL-Fit module in Microsoft Excel to determine EC50 values using a 4-parameter curve fitting algorithm. Concurrently, the effect of compounds on cell viability was assessed using replicate plates, plated at a density of 5,000 cells/well and incubated for 4 days, to determine the ATP content as a measure of cell viability using the cell-titer glo reagent (CTG; Promega Corporation, Madison, Wis.) as per manufacturer's instructions.
In vitro combination studies were conducted using the method of Prichard and Shipman (Prichard M N, Shipman C, Jr., Antiviral Res, 14, 181-205 (1990)). The HepDE19 cell line was developed as described in Guo et al. (Guo et al., J Virol, 81, 12472-12484 (2007)). It is a human hepatoma cell line stably transfected with the HBV genome, and which can express HBV pregenomic RNA and support HBV rcDNA (relaxed circular DNA) synthesis in a tetracycline-regulated manner. HepDE19 cells were plated in 96 well tissue-culture treated microtiter plates in DMEM/F12 medium supplemented with 10% fetal bovine serum+1% penicillin-streptomycin without tetracycline and incubated in a humidified incubator at 37° C. and 5% CO2 overnight. […] The two inhibitors were tested both singly as well as in combinations in a checkerboard fashion such that each concentration of inhibitor A was combined with each concentration of inhibitor B to determine their combination effects on inhibition of rcDNA production. Following a 48 hour-incubation, the level of rcDNA present in the inhibitor-treated wells was measured using a bDNA assay (Affymetrix) with HBV specific custom probe set and manufacturers instructions. […] Concurrently, the effect of inhibitor combinations on cell viability was assessed using replicate plates that were used to determine the ATP content as a measure of cell viability using the Cell-TiterGlo reagent (Promega) as per manufacturer's instructions.
In vitro combination studies were conducted using the method of Prichard and Shipman (1990) (Prichard M N, Shipman C, Jr. 1990. A three-dimensional model to analyze drug-drug interactions. Antiviral Res 14:181-205 AND Prichard M N. 1992. MacSynergy II, University of Michigan).

Assay [2] deals with D type HBV in primary human hepatocytes. Nature of the assay: microbe, parasite or virus in culture. The assay is classed as cell-based. As to conditions: 3 replicates; Compound 24 0.00 nM; TDF nM: 10.00, 3.33, 1.11, 0.37, 0.12. A digest of the protocol: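 Supernatants collected on day 8 were assayed for HBV DNA by qPCR after compound exposure beginning day 2, with media and compound replaced every second day, in hepatocytes infected on day 1 with D type HBV. Dose-response: 7 points, 3-fold steps, triplicate; pairwise combinations tested as 5×5 matrix, synergy by MacSynergy.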

Assay [3] deals with D type HBV in primary human hepatocytes (HBsAg). Nature of the assay: microbe, parasite or virus in culture. The class given is cell-based. A digest of the protocol:
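HBsAg inhibition versus DMSO control was determined by ELISA of day 8 supernatants. Percoll-purified PHHs received D type HBV one day after seeding, with compounds from day 2 and media changes every other day. Singles at 7 concentrations (3-fold, triplicate); pairs in 5×5 matrices.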

Setting [4] is: Hepatitis B virus, HepDE19, read-out: ADDITIVE INHIBITION
The mark [5] stands for this setting: Hepatitis B virus, HepDE19, read-out: AVERAGE % INHIBITION (rcDNA).

Each structure is given as a SMILES string. Several values for one entry are separate records, joined by “and”; a condition that tells them apart may be missing. Equal values may be shown once. Read-outs that look alike come from different tables or passages of the source.

Consider `CC(C)OC(=O)OCOP(=O)(CO[C@H](C)Cn1cnc2c(N)ncnc21)OCOC(=O)OC(C)C.O=C(O)/C=C/C(=O)O` [TDF, tenofovir disoproxil fumarate, reference compound], for which, in assay [1], the “SYNERGY PLOT (99.9%) […]. 96%” value came to 0. In assay [1] (Hepatitis B virus, HepDE19), the inhibition (as a rule, the change of the read-out against control, counted positive when it falls) at 0.004 µM was -5.27%; the inhibition at 0.008 µM is 0.67%; the inhibition at 0.016 µM was determined as 2.82%; the inhibition at 0.031 µM amounted to 6.57%. In addition, the inhibition at 0.063 µM in assay [1] (Hepatitis B virus, HepDE19) was determined as 41.7%. In addition, in assay [1] (setting [4]), the inhibition at 0.003906 µM was -5.27%, the inhibition at 0.00781 µM is 0.67%, the inhibition at 0.01563 µM is 2.82% and the inhibition at 0.03125 µM is 6.57%. Also, in assay [1] (setting [4]), the inhibition at 0.0625 µM was 41.7%, the inhibition at 0.125 µM amounted to 66.1%, the inhibition at 0.25 µM amounted to 81.5% and the inhibition at 0.5 µM amounted to 90.8%. Moreover, the inhibition at 1 µM in assay [1] (setting [4]) was determined as 94.5%. Moreover, in assay [1] (setting [5]), the inhibition at 0.125 µM worked out at 66.1%, the inhibition at 0.25 µM amounted to 81.5%, the inhibition at 0.5 µM was determined as 90.8% and the inhibition at 1 µM came out at 94.5%. The EC50 (usually the concentration needed to bring the measured effect to its halfway point) in assay [1] (Hepatitis B virus, HepDE19, read-out: Inhibitor B EC50) came to 89 nM. For the same molecule, the EC50 in assay [1] (Hepatitis B virus, HepDE19, rcDNA by bDNA assay, single agent, read-out: INHIBITOR B EC50) was determined as 88 nM. In addition, in assay [2], the “AVERAGE % INHIBITION HBV DNA” value is −6.24% and −1.16% and −15.4% and 3.15%. The “AVERAGE % INHIBITION (HBsAg)” value in assay [3] (3 replicates, Compound 24 0.00 nM, TDF nM: 10.00, 3.33, 1.11, 0.37, 0.12) is −3.32% and −3.31% and −6.65% and −1.28% and −3.54%. The inhibition at 0.00012 µM in assay [3] (Hepatitis B virus, Hepatocyte, TDF 0.12 nM alone, read-out: AVERAGE % INHIBITION HBsAg) was 3.39%. Also, the inhibition at 0.00037 µM in assay [3] (Hepatitis B virus, Hepatocyte, TDF 0.37 nM alone, read-out: AVERAGE % INHIBITION HBsAg) is -0.3%. The inhibition at 0.00333 µM in assay [3] (Hepatitis B virus, Hepatocyte, read-out: AVERAGE % INHIBITION HBsAg, TDF 3.33 nM alone) was -0.9%. Besides, in assay [3] (Hepatitis B virus, Hepatocyte, read-out: AVERAGE % INHIBITION HBsAg, TDF 10.00 nM alone), the inhibition at 0.01 µM was -5.9%. Besides, the EC50 in assay [3] (Hepatitis B virus, Hepatocyte, read-out: Inhibitor A EC50) was over 100 nM. The “ADDITIVE INHIBITION (HBsAg)” value in assay [3] (expected from additive interaction, Compound 24 0.00 nM, TDF nM by row: r27 10.00, r28 3.33, r29 1.11, r30 0.37, r31 0.12) is −6.65% and −1.28% and −3.54% and −3.32% and −3.31%.
With `C=C1[C@H](CO)[C@@H](O)C[C@@H]1n1cnc2c(=O)[nH]c(N)nc21` [Entecavir], the “AVERAGE % INHIBITION (rcDNA)” value in assay [1] (ETV 0.016 nM) was −43.72%; in assay [1] (ETV 0.031 nM), −50.07%; in assay [1] (ETV 0.063 nM) it was −30.26%; in assay [1] (ETV 0.125 nM), −23.47%; in assay [1] (ETV 0.250 nM), −21.25%; in assay [1] (ETV 1.000 nM) it was 41.71%. The results for the “AVERAGE % INHIBITION (rcDNA)” value in assay [1] (ETV 2.000 nM) and in assay [1] (ETV 4.000 nM) were 58.35% and 69.99%, respectively. For the same molecule, the EC50 in assay [1] (Hepatitis B virus, HepDE19, rcDNA by bDNA assay, ETV, read-out: Inhibitor B EC50) amounted to 1.78 nM. Also, the “ADDITIVE INHIBITION” value is listed as −43.72% in assay [1] (ETV 0.015625 nM); −50.07% in assay [1] (ETV 0.03125 nM); −30.26% in assay [1] (ETV 0.0625 nM); −23.47% in assay [1] (ETV 0.125 nM); −21.25% in assay [1] (ETV 0.25 nM); 41.71% in assay [1] (ETV 1 nM). Besides, the results for the “ADDITIVE INHIBITION” value in assay [1] (ETV 2 nM) and in assay [1] (ETV 4 nM) were 58.35% and 69.99%, respectively.
